Experimental data published in patent US20090068299A1.

Assays:
[1] = molecular target: T1, ERβ (Homo sapiens, UniProt Q92731); experiment: ERE-tk-Luc luciferase activation in U2OS cells with ERβ; format: cell-based; design: expressed in transfected cells; host or cells: U2OS (human osteosarcoma); conditions: competition
[2] = test system: TNF-RE tkLuc; experiment: Effect of antiestrogens on TNF-RE tkLuc; format: cell-based, human; conditions: for effect on the repression induced by E2: TNF-RE tkLuc; for activation of TNF-RE tkLuc: antiestrogens, in contrast to E2
[3] = test system: primary invasive breast cancer; conditions: women at high risk for breast cancer; cited from earlier work
[4] = test system: estrogen receptor-positive breast cancer; conditions: five years of therapy; cited from earlier work
[5] = molecular target: T1, ERβ; experiment: Repression of TNF-α activation of TNF-RE tkLuc in U2OS cells with ERβ; format: cell-based; design: expressed in transfected cells
[6] = molecular target: T1, ERβ; conditions: in the presence of ERβ

T1 sequence (Q92731 whole entry): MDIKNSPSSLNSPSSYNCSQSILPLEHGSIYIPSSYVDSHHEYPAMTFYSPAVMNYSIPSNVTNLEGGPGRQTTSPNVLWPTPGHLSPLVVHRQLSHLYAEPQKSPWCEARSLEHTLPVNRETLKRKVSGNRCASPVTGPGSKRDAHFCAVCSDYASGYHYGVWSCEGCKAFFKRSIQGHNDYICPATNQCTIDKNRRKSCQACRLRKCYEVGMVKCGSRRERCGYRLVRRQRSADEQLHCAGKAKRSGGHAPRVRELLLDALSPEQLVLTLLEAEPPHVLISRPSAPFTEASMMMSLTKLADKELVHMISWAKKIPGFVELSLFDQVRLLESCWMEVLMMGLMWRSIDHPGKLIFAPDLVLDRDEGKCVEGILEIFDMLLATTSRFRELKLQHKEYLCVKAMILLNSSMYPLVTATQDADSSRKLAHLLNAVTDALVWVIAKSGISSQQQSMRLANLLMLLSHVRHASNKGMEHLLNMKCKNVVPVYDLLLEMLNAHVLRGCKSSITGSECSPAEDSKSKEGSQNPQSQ

stimulatory effect of Pueraria lobata on the ERE with ERβ in the presence of the SERM antagonist (FIG. 6) [1]	repression of TNF-α activation of TNF-RE [5]	repression of TNF-α activation of TNF-RE tkLuc [6]	SMILES	effect on the repression induced by E2 [2]	activation of TNF-RE tkLuc [2]	reduction of the risk of primary invasive breast cancer [3]	reduction of mortality from breast cancer [4]	reduction of the risk of recurrences [4]
inhibited	–	–	O=C(c1ccc(OCCN2CCCCC2)cc1)c1c(-c2ccc(O)cc2)sc2cc(O)ccc12 [raloxifene]	abolished the repression induced by E2	2 fold	–	–	–
–	–	–	CC/C(=C(\c1ccccc1)c1ccc(OCCN(C)C)cc1)c1ccccc1 [tamoxifen]	abolished the repression induced by E2	2 fold	49%	22%	42%
–	–	–	C[C@]12CC[C@@H]3c4ccc(O)cc4C[C@@H](CCCCCCCCC[S+]([O-])CCCC(F)(F)C(F)(F)F)[C@H]3[C@@H]1CC[C@@H]2O (stereo partly drawn) [ICI 182, 780]	abolished the repression induced by E2	2 fold	–	–	–
–	100%	60-80%	C[C@]12CC[C@@H]3c4ccc(O)cc4CC[C@H]3[C@@H]1CC[C@@H]2O [E2, estradiol]	–	–	–	–	–
